For one series, the target named is T1, Human KLK1 (Homo sapiens, UniProt P06870).
T1 construct: purchased Callbiochem
Briefly: Determination of the IC50 for KLK1. Type of series: biochemical. Particulars: 25° C., substrate H-DVal-Leu-Arg-AFC. Here is the method: KLK1 inhibitory activity in vitro was determined using standard published methods (see e.g. Johansen et al., Int. J. Tiss. Reac. 1986, 8, 185; Shori et al., Biochem. Pharmacol., 1992, 43, 1209; Stürzebecher et al., Biol. Chem. Hoppe-Seyler, 1992, 373, 1025). Human KLK1 (Callbiochem) was incubated at 25° C. with the fluorogenic substrate H-DVal-Leu-Arg-AFC and various concentrations of the test compound. Residual enzyme activity (initial rate of reaction) was determined by measuring the change in optical absorbance at 410 nm and the IC50 value for the test compound was determined.

The next series deals with T2, Human FXIa (Homo sapiens, UniProt P03951).
T2 construct: purchased Enzyme Research Laboratories
T2 sequence (P03951 388-625 limits assumed): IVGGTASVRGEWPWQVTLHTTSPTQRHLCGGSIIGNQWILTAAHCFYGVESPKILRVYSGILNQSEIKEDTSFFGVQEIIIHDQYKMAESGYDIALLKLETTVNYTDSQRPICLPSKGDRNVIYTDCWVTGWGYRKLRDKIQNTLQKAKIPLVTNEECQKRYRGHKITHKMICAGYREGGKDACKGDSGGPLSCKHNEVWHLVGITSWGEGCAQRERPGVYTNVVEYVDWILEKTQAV
T2 sequence (P03951 19-387 partner limits assumed): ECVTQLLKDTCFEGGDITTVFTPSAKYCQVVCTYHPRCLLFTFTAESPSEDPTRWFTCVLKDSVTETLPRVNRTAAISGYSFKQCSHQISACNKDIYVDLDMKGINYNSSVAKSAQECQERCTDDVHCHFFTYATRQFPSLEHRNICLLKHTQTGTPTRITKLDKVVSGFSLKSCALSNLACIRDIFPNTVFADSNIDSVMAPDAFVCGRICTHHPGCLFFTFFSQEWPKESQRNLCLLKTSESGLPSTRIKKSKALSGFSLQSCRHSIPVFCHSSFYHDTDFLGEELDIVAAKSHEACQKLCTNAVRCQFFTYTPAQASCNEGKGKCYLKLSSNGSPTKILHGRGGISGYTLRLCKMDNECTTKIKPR
As to the kind of experiment: Determination of the % Inhibition for FXIa. Type of series: biochemical. Conditions: 40 μM test compound, 25° C. Here is the method:
FXIa inhibitory activity in vitro was determined using standard published methods (see e.g. Johansen et al., Int. J. Tiss. Reac. 1986, 8, 185; Shori et al., Biochem. Pharmacol., 1992, 43, 1209; Sturzebecher et al., Biol. Chem. Hoppe-Seyler, 1992, 373, 1025). Human FXIa (Enzyme Research Laboratories) was incubated at 25° C. with the fluorogenic substrate Z-Gly-Pro-Arg-AFC and 40 μM of the test compound. Residual enzyme activity (initial rate of reaction) was determined by measuring the change in optical absorbance at 410 nm.

The nature of series [1]: Pharmacokinetic study, single oral dose in rats. Type of series: in vivo. Particulars: male, Sprague-Dawley, plasma; rat, po 10.1 mg/kg, vehicle TPGS solution (20% aq. w/v). As to the method: A pharmacokinetic study of the compound of Formula A was performed to assess the pharmacokinetics following a single oral dose in male Sprague-Dawley rats. Two rats were given a single po dose of 5 mL/kg of a nominal 2 mg/mL (10 mg/kg) composition of test compound in vehicle. Following dosing, blood samples were collected over a period of […]. Sample times were 5, 15 and 30 minutes then 1, 2, 4, 6, 8 and 12 hrs. Following collection, blood samples were centrifuged and the plasma fraction analysed for concentration of test compound by LCMS.

Each structure is given as a SMILES string.

T1 sequence (P06870 25-262): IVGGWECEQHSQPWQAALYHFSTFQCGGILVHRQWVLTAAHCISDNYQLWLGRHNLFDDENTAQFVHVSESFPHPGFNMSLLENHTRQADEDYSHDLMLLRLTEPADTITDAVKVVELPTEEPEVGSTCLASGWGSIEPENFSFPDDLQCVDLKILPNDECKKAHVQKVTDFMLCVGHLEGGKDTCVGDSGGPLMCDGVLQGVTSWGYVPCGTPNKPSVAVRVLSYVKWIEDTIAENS

As usually defined, the IC50 is the point on the concentration scale where inhibition reaches its midpoint. The low end stands for inhibition by little substance, the high end for a need for much substance. The term inhibition denotes the drop in the measured response relative to a control, in per cent. Broadly, the Cmax is the maximum level reached in the sampled fluid or tissue. As a reminder, the Tmax is the time from dosing to the highest level. For the compound `COCc1nn(Cc2ccc(Cn3ccccc3=O)cc2)cc1C(=O)NCc1nccc(OC)c1F` [compound of Formula A, N-[(3-fluoro-4-methoxypyridin-2-yl)methyl]-3-(methoxymethyl)-1-({4-[(2-oxopyridin-1-yl)methyl]phenyl}methyl)pyrazole-4-carboxamide], the IC50 against Human KLK1 was > 40 µM. The same compound showed an inhibition at 40 µM on Human FXIa of 0%. In series [1], the Cmax turned out to be 1940 ng/mL and the Tmax is 1.17 h.

Values taken from patent publication US11234939B2, “Dosage forms comprising a plasma kallikrein inhibitor” (KALVISTA PHARMACEUTICALS LIMITED, priority 2017, dated 2022).
